Laboratory results reported in US10889553B2, “Asymmetric triazole benzamide derivatives and the compositions and methods of treatment regarding the same” (NysnoBio Ireland DAC, priority 2017, dated 2021).
Where “and” joins values, the source holds several entries; their conditions need not be identical. Equal values may be shown once.

Each molecule was assayed against T1, Parkin ligase (Homo sapiens, UniProt O60260) (assay: Activity-Based Probe Assay using Ubiquitin vinyl sulfone probe (TR-FRET)). Settings: heat activated Parkin, HA-Ub-VS probe, activation EC50; read-out: Probe Assay EC50 (μM) [Example 2].
T1 sequence (O60260 1-465): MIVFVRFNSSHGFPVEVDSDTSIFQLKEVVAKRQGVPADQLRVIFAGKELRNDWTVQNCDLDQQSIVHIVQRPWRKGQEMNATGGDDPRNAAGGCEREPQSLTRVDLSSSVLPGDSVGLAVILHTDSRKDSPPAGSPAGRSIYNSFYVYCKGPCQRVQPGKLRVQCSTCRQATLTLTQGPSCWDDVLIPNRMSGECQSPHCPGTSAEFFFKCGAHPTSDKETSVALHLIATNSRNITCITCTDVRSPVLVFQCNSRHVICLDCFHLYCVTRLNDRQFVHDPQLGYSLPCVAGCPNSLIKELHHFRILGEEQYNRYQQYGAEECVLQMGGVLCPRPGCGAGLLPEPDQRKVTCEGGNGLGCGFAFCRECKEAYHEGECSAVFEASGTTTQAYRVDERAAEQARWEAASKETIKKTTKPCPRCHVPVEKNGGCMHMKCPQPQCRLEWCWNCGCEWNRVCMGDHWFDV
Format: biochemical
Outline: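 Heat-activated His-Parkin (5 min, 58 °C; 40 nM) was preincubated 15 min with compound, then reacted 60 min at 22 °C with 70 nM HA-Ub-VS in 50 mM HEPES pH 8.5, 150 mM NaCl, 0.01% Tween 20, 0.1% BSA. Probe labelling was read by anti-His-Eu/anti-HA-XL665 TR-FRET (665/615 ratio). % activation was normalized to DMSO and 100 nM control activator, then fitted with a four-parameter curve (Bottom=0, Top=100).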

Row | SMILES | EC50
1 | C#Cc1ccc(C(=O)Nc2nc(NC(=O)c3cccc(N=[N+]=[N-])c3)n(-c3ccccc3)n2)cc1 [Compound 2] | 4 µM
2 | Cc1ccccc1C(=O)Nc1nc(NC(=O)c2cccnc2)nn1-c1ccccc1 [Compound 6] | 2 µM
3 | Cc1ccccc1C(=O)Nc1nc(NC(=O)c2ccno2)n(-c2ccccc2)n1 [Compound 7] | 12 µM
4 | Cc1ccccc1C(=O)Nc1nc(NC(=O)c2ccccn2)nn1-c1ccccc1 [Compound 16] | 3 µM
5 | Cc1ccccc1C(=O)Nc1nc(NC(=O)c2cnccn2)n(-c2ccccc2)n1 [Compound 17] | 10 µM
6 | Cc1ccccc1C(=O)Nc1nc(NC(=O)C2CCCN2)nn1-c1ccccc1 (stereo not drawn) [Compound 20] | 2 µM
7 | Cc1ccc(C(=O)Nc2nc(NC(=O)c3ccc(C)cc3)n(-c3ccccc3)n2)cc1 [Compound 21] | 5 µM
8 | COc1ccccc1C(=O)Nc1nc(NC(=O)c2ccccc2OC)n(-c2ccccc2)n1 [Compound 23] | 10 µM
9 | Cc1ccccc1C(=O)Nc1nc(NC(=O)c2ccccc2C)n(-c2ccc(F)c(F)c2)n1 [Compound 24] | 3 µM
10 | Cc1ccccc1C(=O)Nc1nc(NC(=O)c2ccccc2C)n(-c2ccc(C(F)(F)F)cc2)n1 [Compound 25] | 0.9 µM and 2 µM
11 | Cc1ccccc1C(=O)Nc1nc(NC(=O)c2ccccc2C)n(-c2ccccc2Cl)n1 [Compound 26] | 6 µM
12 | Cc1ccc(-n2nc(NC(=O)c3ccccc3C)nc2NC(=O)c2ccccc2C)cc1 [Compound 31] | 4 µM
13 | Cc1ccccc1C(=O)Nc1nc(NC(=O)c2ccccc2C)n(-c2ccccc2F)n1 [Compound 32] | 9 µM
14 | O=C(Nc1nc(NC(=O)c2ccncc2)n(-c2ccccc2)n1)c1ccncc1 [Compound 33] | 3 µM
15 | Cc1ccccc1C(=O)Nc1nc(NC(=O)c2ccncc2)nn1-c1ccccc1 [Compound 34] | 2 µM
16 | Cc1ccccc1C(=O)Nc1nc(NC(=O)c2ccccc2C)n(-c2ccc(C#N)cc2)n1 [Compound 35] | 3 µM
17 | Cc1ccccc1C(=O)Nc1nc(NC(=O)c2ccccc2C)n(-c2cccc(Cl)c2)n1 [Compound 36] | 3 µM and 4 µM
18 | COc1ccc(C(=O)Nc2nc(NC(=O)c3ccc(OC)cc3)n(-c3ccccc3)n2)cc1 [Compound 37] | 4 µM
19 | Cc1cccc(-n2nc(NC(=O)c3ccccc3C)nc2NC(=O)c2ccccc2C)c1 [Compound 38] | 5 µM
20 | Cc1ccccc1C(=O)Nc1nc(NC(=O)c2ccccc2C)n(-c2cccc(F)c2)n1 [Compound 39] | 4 µM
21 | O=C(Nc1nc(NC(=O)c2cccnc2)n(-c2ccccc2)n1)c1cccnc1 [Compound 40] | 1 µM
22 | O=C(Nc1nc(NC(=O)c2ccccn2)n(-c2ccccc2)n1)c1ccccn1 [Compound 41] | 2 µM
23 | Cc1ccccc1C(=O)Nc1nc(NC(=O)c2ccccc2C)n(-c2ccc(OC(F)(F)F)cc2)n1 [Compound 42, N,N′-(1-(4-(trifluoromethoxy)phenyl)-1H-1,2,4-triazole-3,5-diyl)bis(2-methylbenzamide)] | 1 µM and 3 µM
24 | Cc1ccccc1C(=O)Nc1nc(NC(=O)c2ccccc2C)n(-c2ccc(N3CCCCC3)cc2)n1 [Compound 44] | 3 µM
25 | Cc1ccccc1C(=O)Nc1nc(NC(=O)c2ccccc2C)n(-c2ccc(F)cc2F)n1 [Compound 46] | 6 µM
26 | Cc1ccccc1C(=O)Nc1nc(NCc2ccccc2)nn1-c1ccc(C(F)(F)F)cc1 [Compound 102] | 2 µM
27 | Cc1ccnc(-c2nc(NC(=O)c3ccccc3C)n(-c3ccccc3)n2)c1 [Compound 124] | 3 µM
